From ChEMBL document CHEMBL5608184, “Discovery and mechanistic insights into thieno[3,2-d]pyrimidine and heterocyclic fused pyrimidines inhibitors targeting tubulin for cancer therapy” (Eur J Med Chem, 2024)
pIC50: −log10 of the molar value. Active and inactive are the calls of the source. No cut-off for these calls is given here.

Tests used:
Tubulin (Homo sapiens) [1] = target: T1, Tubulin (Homo sapiens) (UniProt P68371+Q9H4B7+P0DPH7+P68366+Q13509+Q71U36+P04350+Q3ZCM7+P07437+P68363+Q9BQE3+Q6PEY2+Q13885+Q9BVA1+Q9BUF5); test: Inhibition of tubulin polymerization in human SK-OV-3 assessed as condensation of microtubule at cell periphery at 2 nM incubated for 24 hrs by immunofluorescence based analysis
Tubulin (Homo sapiens) [2] = target: T1, Tubulin (Homo sapiens); test: Inhibition of tubulin polymerization in human SK-OV-3 assessed as disruption of microtubule cytoskeleton at 2 nM incubated for 24 hrs by immunofluorescence based analysis; format: cell-based
Tubulin (Homo sapiens) [3] = target: T1, Tubulin (Homo sapiens); test: Inhibition of tubulin polymerization in human SK-OV-3 assessed as severe cell contraction at 2 nM incubated for 24 hrs by immunofluorescence based analysis
Tubulin (Homo sapiens) [4] = target: T1, Tubulin (Homo sapiens); test: Inhibition of tubulin polymerization in human SK-OV-3 assessed as decrease in cell viability at 2 nM incubated for 24 hrs by immunofluorescence based analysis
A2780 = test: Antiproliferative activity against human A2780 cells incubated for 48 hrs by CCK8 assay; format: functional, cell-based; details: A2780, 48 h
SK-OV-3 [5] = test: Antiproliferative activity against human SK-OV-3 cells incubated for 48 hrs by CCK8 assay; format: functional, cell-based; details: SK-OV-3, 48 h
HCC827 = test: Antiproliferative activity against human HCC827 cells incubated for 48 hrs by CCK8 assay; format: functional, cell-based; details: HCC827, 48 h
[6] = Antiproliferative activity against Paclitaxel-resistant human A2780 cells incubated for 48 hrs by CCK8 assay; format: functional, cell-based; details: Paclitaxel-resistant A2780, 48 h
SK-OV-3 [7] = test: Inhibition of colony formation in human SK-OV-3 cells incubated for 3 days by crystal violet staining based analysis; format: functional, cell-based; details: dose 0.625-5 nM, time 3.0 day
Sus scrofa = species: Sus scrofa; test: Inhibition of porcine brain tubulin polymerization measured for 60 min by fluorescence based assay; details: dose 10.0 µM
SK-OV-3 [8] = test: Induction of cell cycle arrest at G2/M phase in human SK-OV-3 cells at 1.25 nM incubated for 24 hrs by PI staining based flow cytometry (reference value: 29.73 %); format: functional
SK-OV-3 [9] = test: Induction of cell cycle arrest at G2/M phase in human SK-OV-3 cells at 5 nM incubated for 24 hrs by PI staining based flow cytometry (reference value: 29.73 %); format: functional
SK-OV-3 [10] = test: Induction of cell cycle arrest at G2/M phase in human SK-OV-3 cells assessed as decrease in Cdc-25c level incubated for 24 hrs by Western blot analysis; format: functional, cell-based; details: dose 0.625-5 nM
SK-OV-3 [11] = test: Induction of cell cycle arrest at G2/M phase in human SK-OV-3 cells assessed as increase in Cyclin B level incubated for 24 hrs by Western blot analysis; format: functional, cell-based; details: dose 0.625-5 nM
SK-OV-3 [12] = test: Induction of apoptosis in human SK-OV-3 cells assessed as viable cells at 1.25 nM incubated for 48 hrs by Annexin V-APC-A/7-AAD-A staining based flow cytometry (reference value: 97.17 %); format: functional; details: read-out: Activity
SK-OV-3 [13] = test: Induction of apoptosis in human SK-OV-3 cells assessed as early apoptotic cells at 1.25 nM incubated for 48 hrs by Annexin V-APC-A/7-AAD-A staining based flow cytometry (reference value: 1.12 %); format: functional
SK-OV-3 [14] = test: Induction of apoptosis in human SK-OV-3 cells assessed as viable cells at 2.5 nM incubated for 48 hrs by Annexin V-APC-A/7-AAD-A staining based flow cytometry (reference value: 97.17 %); format: functional; details: read-out: Activity
SK-OV-3 [15] = test: Induction of apoptosis in human SK-OV-3 cells assessed as necrotic cells at 2.5 nM incubated for 48 hrs by Annexin V-APC-A/7-AAD-A staining based flow cytometry (reference value: 0.48 %); format: functional
SK-OV-3 [16] = test: Induction of apoptosis in human SK-OV-3 cells assessed as decrease in Bcl-2 level incubated for 48 hrs by Western blot analysis; format: functional, cell-based; details: dose 0.625-5 nM
SK-OV-3 [17] = test: Induction of apoptosis in human SK-OV-3 cells assessed as increase in cleaved caspase-3 level incubated for 48 hrs by Western blot analysis; format: functional, cell-based; details: dose 0.625-5 nM
SK-OV-3 [18] = test: Induction of apoptosis in human SK-OV-3 cells assessed as increase in cleaved caspase-9 level incubated for 48 hrs by Western blot analysis; format: functional, cell-based; details: dose 0.625-5 nM
SK-OV-3 [19] = test: Induction of apoptosis in human SK-OV-3 cells assessed as increase in cleaved PARP level incubated for 48 hrs by Western blot analysis; format: functional, cell-based; details: dose 0.625-5 nM
SK-OV-3 [20] = test: Inhibition of cell migration in human SK-OV-3 cells assessed as migration rate at 0.625 nM incubated for 24 hrs by wound healing assay relative to control; format: functional; design: scale not given: the % may be the effect or the level left
SK-OV-3 [21] = test: Inhibition of cell migration in human SK-OV-3 cells assessed as migration rate at 1.25 nM incubated for 24 hrs by wound healing assay relative to control; format: functional; design: scale not given: the % may be the effect or the level left
SK-OV-3 [22] = test: Inhibition of cell migration in human SK-OV-3 cells assessed as migration rate at 2.5 nM incubated for 24 hrs by wound healing assay relative to control; format: functional; design: scale not given: the % may be the effect or the level left
SK-OV-3 [23] = test: Inhibition of cell migration in human SK-OV-3 cells assessed as migration rate at 5 nM incubated for 24 hrs by wound healing assay relative to control; format: functional; design: scale not given: the % may be the effect or the level left
A549 = test: cells; details: Homo sapiens, A549, 48 h
Description: Antiproliferative activity against human A549 cells incubated for 48 hrs by CCK8 assay

SK-OV-3 [24] = test: Induction of cell cycle arrest at G2/M phase in human SK-OV-3 cells at 0.625 nM incubated for 24 hrs by PI staining based flow cytometry (reference value: 30.13 %); format: functional
SK-OV-3 [25] = test: Induction of cell cycle arrest at G2/M phase in human SK-OV-3 cells at 5 nM incubated for 24 hrs by PI staining based flow cytometry (reference value: 30.13 %); format: functional
SK-OV-3 [26] = test: Induction of apoptosis in human SK-OV-3 cells assessed as late apoptotic cells at 0.625 nM incubated for 48 hrs by Annexin V-APC-A/7-AAD-A staining based flow cytometry (reference value: 1.20 %); format: functional
SK-OV-3 [27] = test: Induction of apoptosis in human SK-OV-3 cells assessed as late apoptotic cells at 1.25 nM incubated for 48 hrs by Annexin V-APC-A/7-AAD-A staining based flow cytometry (reference value: 1.20 %); format: functional
SK-OV-3 [28] = test: Induction of apoptosis in human SK-OV-3 cells assessed as viable cells at 2.5 nM incubated for 48 hrs by Annexin V-APC-A/7-AAD-A staining based flow cytometry (reference value: 97.50 %); format: functional; details: read-out: Activity
SK-OV-3 [29] = test: Induction of apoptosis in human SK-OV-3 cells assessed as late apoptotic cells at 2.5 nM incubated for 48 hrs by Annexin V-APC-A/7-AAD-A staining based flow cytometry (reference value: 1.20 %); format: functional
SK-OV-3 [30] = test: Induction of apoptosis in human SK-OV-3 cells assessed as necrotic cells at 2.5 nM incubated for 48 hrs by Annexin V-APC-A/7-AAD-A staining based flow cytometry (reference value: 0.21 %); format: functional
SK-OV-3 [31] = test: Induction of apoptosis in human SK-OV-3 cells assessed as late apoptotic cells at 5 nM incubated for 48 hrs by Annexin V-APC-A/7-AAD-A staining based flow cytometry (reference value: 1.20 %); format: functional
SK-OV-3 [32] = test: Inhibition of cell migration in human SK-OV-3 cells assessed as relative wound density at 0.625 nM incubated for 24 hrs by wound healing assay (reference value: 61.61 %); format: functional; design: scale not given: the % may be the effect or the level left

For `COc1ccc2c(c1)NC(=O)CN2c1nc(Cl)nc2ccsc12`, the inhibition (Tubulin (Homo sapiens) [1]) was “Active”, the inhibition (Tubulin (Homo sapiens) [2]) was “Active” and the inhibition (Tubulin (Homo sapiens) [3]) was “Active”. For the same molecule, the inhibition (Tubulin (Homo sapiens) [4]) was “Active”, the pIC50 (A2780) was 9.42 and the pIC50 (SK-OV-3 [5]) was 9.51. For the same molecule, the pIC50 (HCC827) was 9.47, the pIC50 [6] was 9.12 and the inhibition (SK-OV-3 [7]) was “Dose-Dependent Effect”. For the same molecule, the inhibition (Sus scrofa) was “Dose-Dependent Effect”, the Activity (SK-OV-3 [8]) was 85.13% and the Activity (SK-OV-3 [9]) was 88.67%. The Activity (SK-OV-3 [10]) was “Active”, the Activity (SK-OV-3 [11]) was “Active” and the viability at 0.00125 µM (SK-OV-3 [12]) was 54.3%. The Activity (SK-OV-3 [13]) was 38.42%, the viability at 0.0025 µM (SK-OV-3 [14]) was 53.9% and the Activity (SK-OV-3 [15]) was 2.32%. For the same molecule, the Activity (SK-OV-3 [16]) was “Dose-Dependent Effect”, the Activity (SK-OV-3 [17]) was “Dose-Dependent Effect” and the Activity (SK-OV-3 [18]) was “Dose-Dependent Effect”. The Activity (SK-OV-3 [19]) was “Dose-Dependent Effect”, the Activity (SK-OV-3 [20]) was 84.28% and the Activity (SK-OV-3 [21]) was 70.73%. The Activity (SK-OV-3 [22]) was 50.2%, the Activity (SK-OV-3 [23]) was 23.64% and the pIC50 (A549) was 9.08.
In the case of `COc1ccc(N(C)c2nc(Cl)nc3ccn(C)c23)cc1`, the inhibition (Tubulin (Homo sapiens) [1]) was “Active”, the inhibition (Tubulin (Homo sapiens) [2]) was “Active” and the inhibition (Tubulin (Homo sapiens) [3]) was “Active”. The inhibition (Tubulin (Homo sapiens) [4]) was “Active”, the pIC50 (A2780) was 8.81 and the pIC50 (SK-OV-3 [5]) was 8.88. The pIC50 (HCC827) was 8.76, the pIC50 [6] was 8.65 and the inhibition (SK-OV-3 [7]) was “Dose-Dependent Effect”. The inhibition (Sus scrofa) was “Dose-Dependent Effect”, the Activity (SK-OV-3 [24]) was 32.3% and the Activity (SK-OV-3 [25]) was 87.47%. For the same molecule, the Activity (SK-OV-3 [10]) was “Active”, the Activity (SK-OV-3 [11]) was “Active” and the Activity (SK-OV-3 [26]) was 1.93%. The Activity (SK-OV-3 [27]) was 2.48%, the viability at 0.0025 µM (SK-OV-3 [28]) was 75.9% and the Activity (SK-OV-3 [29]) was 2.27%. The Activity (SK-OV-3 [30]) was 1.17%, the Activity (SK-OV-3 [31]) was 3.86% and the Activity (SK-OV-3 [16]) was “Dose-Dependent Effect”. For the same molecule, the Activity (SK-OV-3 [17]) was “Dose-Dependent Effect”, the Activity (SK-OV-3 [18]) was “Dose-Dependent Effect” and the Activity (SK-OV-3 [19]) was “Dose-Dependent Effect”. It also gave an Activity (SK-OV-3 [32]) of 58.03%, an Activity (SK-OV-3 [20]) of 102.55% and an Activity (SK-OV-3 [21]) of 94.75%. It also gave an Activity (SK-OV-3 [22]) of 81.73%, an Activity (SK-OV-3 [23]) of 56.82% and a pIC50 (A549) of 8.75.
